From US20240409536A1, “COMPOUNDS AND METHODS FOR MODULATING SPLICING” (REMIX THERAPEUTICS INC., priority 2021, published 2024)

Tests used:
[1] = test system: HTT mRNA; experiment: Splicing RT-qPCR assay, HTT canonical (CJ) and alternative (AJ) junction mRNA; assay type: cell-based; conditions: Homo sapiens, A673 or K562 cells, 24 hours; for IC50: decrease in canonical junction mRNA; for AC50: increase in alternative junction mRNA
Method in brief: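 A673 or K562 cells were treated 24 h at 37 °C with compounds in an 11-point 3-fold dilution series (top final 10 uM, DMSO ≤0.25%). Lysates were analysed by one-step RT-qPCR for canonical (CJ) and alternative-exon (AJ) junction isoforms, normalized to GAPDH, GUSB or PPIA.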

[2] = test system: HiBiT-tagged HTT protein; experiment: HiBiT protein abundance assay, HTT (K562 HiBiT knock-in cells); assay type: cell-based, human; conditions: 24 hours
Method in brief: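 K562 cells with endogenous HiBiT knock-in tag, 10-point 3-fold dilutions (top 10 μM final, ≤0.25% DMSO), 24 h at 37 °C. Lytic Nano-Glo HiBiT luminescence, normalized to DMSO and unmodified K562 baselines; IC50 is concentration giving 50% protein abundance from four-parameter fit.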

[3] = test system: K562 cells; experiment: Cell Titer Glo 2.0 cell viability assay in K562 cells; conditions: 72 hours

Compound | IC50 [1] | AC50 [1] | IC50 [2] | Viability [3]
Cc1cn2cc(NC(=O)c3ccc(N4CCNC5(CC5)C4)c4cccnc34)cc(F)c2n1 [Compound 341] | 1 to 10 µM | 1 to 10 µM | 1 to 10 µM | B (B represents 100-1000 nM)
COc1nc2c(F)cc(NC(=O)c3ccc(N4C[C@@H](C)N[C@@H](C)C4)c4nccnc34)cc2o1 [Compound 342] | > 10 µM | > 10 µM | > 10 µM | C (C represents 1000-9999 nM)
C[C@@H]1CN(c2ccc(C(=O)Nc3cc(F)c4cnccc4c3)c3nccnc23)C[C@H](C)N1 [Compound 343] | 1 to 10 µM | 1 to 10 µM | 1 to 10 µM | C (C represents 1000-9999 nM)
C[C@@H]1CN(c2ccc(C(=O)Nc3cc(F)c4ncccc4c3)c3nccnc23)C[C@H](C)N1 [Compound 344] | > 10 µM | > 10 µM | > 10 µM | C (C represents 1000-9999 nM)
Cc1cn2cc(NC(=O)c3ccc(N4CCNCC4)c4nncnc34)cc(F)c2n1 [Compound 345] | 1 to 10 µM | 1 to 10 µM | 1 to 10 µM | B (B represents 100-1000 nM)
Cc1cn2cc(NC(=O)c3ccc(N4C[C@@H](C)N[C@@H](C)C4)c4ncc(OC5CC5)nc34)cc(F)c2n1 [Compound 351] | 1 to 10 µM | > 10 µM | 1 to 10 µM | B (B represents 100-1000 nM)
COc1nc(NC(=O)c2ccc(N3C[C@@H](C)N[C@@H](C)C3)c3nccnc23)cc2cn(C)nc12 [Compound 352] | 1 to 10 µM | 1 to 10 µM | 1 to 10 µM | B (B represents 100-1000 nM)
Cc1ccc2cc(NC(=O)c3ccc(N4C[C@@H](C)N[C@@H](C)C4)c4nccnc34)cc(F)c2n1 [Compound 353] | > 10 µM | > 10 µM | > 10 µM | C (C represents 1000-9999 nM)
Cc1cn2nc(NC(=O)c3ccc(N4C[C@@H](C)N[C@@H](C)C4)c4nccnc34)cc2c(C)n1 [Compound 354] | 0.1 to 1 µM | 0.1 to 1 µM | 0.1 to 1 µM | B (B represents 100-1000 nM)
Cc1cn2cc(NC(=O)c3ccc(N4CCC(N)(CF)CC4)c4nccnc34)cc(F)c2n1 [Compound 356] | 1 to 10 µM | > 10 µM | 1 to 10 µM | C (C represents 1000-9999 nM)
COc1cn2cc(NC(=O)c3ccc(N4C[C@@H](C)N[C@@H](C)C4)c4nccnc34)cc(F)c2n1 [Compound 357] | > 10 µM | > 10 µM | > 10 µM | C (C represents 1000-9999 nM)
Cc1cn2cc(NC(=O)c3ccc(N4C[C@@H](C)N[C@@H](C)C4)c4ncccc34)cc(F)c2n1 [Compound 358] | > 10 µM | > 10 µM | > 10 µM | D (D represents greater than 10 μM in K562 cells)
Cc1cn2cc(NC(=O)c3ccc(N4C[C@@H](C)N[C@@H](C)C4)c4nccnc34)nc2c(C)n1 [Compound 359] | > 10 µM | > 10 µM | > 10 µM | B (B represents 100-1000 nM)
C[C@@H]1CN(c2ccc(C(=O)Nc3cc(F)c4nc(O)cn4c3)c3nccnc23)C[C@H](C)N1 [Compound 360] | > 10 µM | > 10 µM | > 10 µM | D (D represents greater than 10 μM in K562 cells)
Cc1cn2cc(NC(=O)c3ccc(N4CCN[C@H](CO)C4)c4nccnc34)cc(F)c2n1 [Compound 362] | 1 to 10 µM | 1 to 10 µM | 1 to 10 µM | B (B represents 100-1000 nM)
Cc1cn2cc(NC(=O)c3ccc(N4CCNC5(CCC5)C4)c4nccnc34)cc(F)c2n1 [Compound 363] | 1 to 10 µM | 1 to 10 µM | 1 to 10 µM | A (A represents <100 nM)
Cc1cn2cc(NC(=O)c3ccc(N4CCN(C)C5(CC5)C4)c4nccnc34)cc(F)c2n1 [Compound 364] | 0.1 to 1 µM | 1 to 10 µM | 0.1 to 1 µM | B (B represents 100-1000 nM)
CCN1CCN(c2ccc(C(=O)Nc3cc(F)c4nc(C)cn4c3)c3nccnc23)CC12CC2 [Compound 365] | 0.1 to 1 µM | 1 to 10 µM | 0.1 to 1 µM | B (B represents 100-1000 nM)
Cc1cn2cc(NC(=O)c3ccc(N4CCN[C@H](CF)C4)c4nccnc34)cc(F)c2n1 [Compound 366] | 1 to 10 µM | 1 to 10 µM | 1 to 10 µM | C (C represents 1000-9999 nM)
Cc1cn2cc(NC(=O)c3ccc(N4CCN[C@@H](CF)C4)c4nccnc34)cc(F)c2n1 [Compound 367] | 1 to 10 µM | 1 to 10 µM | 1 to 10 µM | C (C represents 1000-9999 nM)
Cc1cn2cc(NC(=O)c3ccc(N4CCNC(C)(CO)C4)c4nccnc34)cc(F)c2n1 (stereo not shown) [Compound 368] | 1 to 10 µM | 1 to 10 µM | 1 to 10 µM | B (B represents 100-1000 nM)
Cc1cn2cc(NC(=O)c3ccc(N4CCN(CCO)C5(CC5)C4)c4nccnc34)cc(F)c2n1 [Compound 369] | 1 to 10 µM | 1 to 10 µM | 1 to 10 µM | C (C represents 1000-9999 nM)
